Source: ChEMBL document CHEMBL5356991, “Naphthyl bearing 1,3,4-thiadiazoleacetamides targeting the parasitic folate pathway as anti-infectious agents: in silico, synthesis, and biological approach” (RSC Med Chem, 2023)

How the values were obtained:
Leishmania donovani = assay: Antileishmanial activity against promastigote stage of Leishmania donovani assessed as parasite growth inhibition incubated for 24 hrs by MTT assay; format: functional, organism-based
[1] = Cytotoxicity against human HEK293 cells assessed as cell growth at 50 uM incubated for 48 hrs by MTT assay relative to control; format: toxicity, cell-based; details: read-out: Activity
Vero = assay: Cytotoxicity against African green monkey Vero cells upto 1000 uM; format: toxicity, cell-based; details: chlorocebus sabaeus
[2] = Safety index, ratio of IC50 for antimalarial activity against chloroquine-sensitive Plasmodium falciparum NF54 to IC50 for cytotoxicity against human HEK293 cells; format: toxicity, cell-based; details: HEK293 cells versus Plasmodium falciparum NF54, read-out: Ratio IC50
Plasmodium falciparum [3] = assay: Antimalarial activity against chloroquine-resistant Plasmodium falciparum W2 assessed as parasite growth inhibition incubated for 72 hrs by Malstat reagent based LDH assay; format: functional, organism-based; details: W2, 72 h
[4] = Hemolytic activity in human RBC assessed as hemolysis at 12.5 uM incubated for 1 hr by spectrophotometric analysis relative to control; format: toxicity, cell-based, Erythrocyte; details: human red blood cells (erythrocytes), read-out: Activity
Dihydrofolate reductase = target: T1, Dihydrofolate reductase (Bos taurus, UniProt P00376); assay: Inhibition of bovine liver DHFR incubated for 12 mins in presence of NADPH
T1 sequence (P00376 whole entry): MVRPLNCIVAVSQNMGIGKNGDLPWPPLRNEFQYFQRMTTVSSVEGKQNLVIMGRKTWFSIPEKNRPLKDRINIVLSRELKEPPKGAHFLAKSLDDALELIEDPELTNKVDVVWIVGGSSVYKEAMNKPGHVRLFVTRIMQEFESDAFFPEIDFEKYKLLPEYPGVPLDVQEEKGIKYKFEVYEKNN

[5] = Selectivity index, ratio of IC50 for cytotoxicity against African green monkey Vero cells to IC50 for inhibition of bovine liver DHFR
Erythrocyte [6] = assay: Hemolytic activity in human RBC assessed as hemolysis at 200 uM incubated for 1 hr by spectrophotometric analysis; format: toxicity, cell-based
Plasmodium falciparum [7] = assay: Antimalarial activity against chloroquine-sensitive Plasmodium falciparum NF54 assessed as parasite growth inhibition incubated for 72 hrs by Malstat reagent based LDH assay; format: functional, organism-based; details: NF54, 72 h
Plasmodium falciparum [8] = assay: Resistance index, ratio of IC50 for antimalarial activity against chloroquine-resistant Plasmodium falciparum W2 to IC50 for antimalarial activity against chloroquine-sensitive Plasmodium falciparum NF54; format: functional
[9] = Cytotoxicity against human HEK293 cells incubated for 48 hrs by MTT assay; format: toxicity, cell-based
Erythrocyte [10] = assay: Hemolytic activity in human RBC assessed as hemolysis at 12.5 to 200 uM incubated for 1 hr by spectrophotometric analysis; format: toxicity, cell-based; details: dose 12.5-200 µM

CCCCCCCCCCCCCCCCOP(=O)([O-])OCC[N+](C)(C)C [MILTEFOSINE]
IC50 (Leishmania donovani): 0.19 µM

O=C(CN1CCN(C(c2ccccc2)c2ccccc2)CC1)Nc1nnc(COc2ccc3ccccc3c2)s1
viability at 48 h, 50 µM [1]: 94.4% | Activity (Vero): Non-Toxic | selectivity ratio [2]: 53.2 | IC50 (Leishmania donovani): 3.55 µM | IC50 (Plasmodium falciparum [3]): > 10 µM | hemolysis at 1 h, 12.5 µM [4]: < 10% | IC50 (Dihydrofolate reductase): 1.87 µM | Ratio IC50 [5]: 535.245 | Activity (Erythrocyte [6]): Toxic | IC50 (Plasmodium falciparum [7]): 0.94 µM

Cc1ccc(N2CCN(CC(=O)Nc3nnc(COc4ccc5ccccc5c4)s3)CC2)cc1
viability at 48 h, 50 µM [1]: 66.4% | selectivity ratio [2]: 0.79 | IC50 (Leishmania donovani): 6.19 µM | IC50 (Plasmodium falciparum [3]): > 10 µM | hemolysis at 1 h, 12.5 µM [4]: < 10% | IC50 (Plasmodium falciparum [7]): 63.7 µM

C=C[C@H]1CN2CC[C@H]1C[C@H]2[C@H](O)c1ccnc2ccc(OC)cc12 [QUININE]
IC50 (Plasmodium falciparum [7]): 0.108 µM

O=C(CN1CCN(c2ccnc3cc(Cl)ccc23)CC1)Nc1nnc(COc2ccc3ccccc3c2)s1
viability at 48 h, 50 µM [1]: 43.3% | Activity (Vero): Non-Toxic | selectivity ratio [2]: 9.44 | IC50 (Leishmania donovani): 7.2 µM | IC50 (Plasmodium falciparum [3]): 3.92 µM | hemolysis at 1 h, 12.5 µM [4]: < 10% | Ratio IC50 (Plasmodium falciparum [8]): 0.99 | IC50 (Dihydrofolate reductase): 2.94 µM | Ratio IC50 [5]: 340.518 | Activity (Erythrocyte [6]): Toxic | IC50 at 48 h [9]: 70.4 µM | IC50 (Plasmodium falciparum [7]): 3.93 µM

O=C(CN1CCOCC1)Nc1nnc(COc2ccc3ccccc3c2)s1
viability at 48 h, 50 µM [1]: 70% | selectivity ratio [2]: 6.54 | IC50 (Leishmania donovani): 5.94 µM | IC50 (Plasmodium falciparum [3]): > 10 µM | hemolysis at 1 h, 12.5 µM [4]: < 10% | IC50 (Plasmodium falciparum [7]): 10.7 µM

CN1CCN(CC(=O)Nc2nnc(COc3ccc4ccccc4c3)s2)CC1
viability at 48 h, 50 µM [1]: 42.8% | selectivity ratio [2]: 8.85 | IC50 (Leishmania donovani): 7.09 µM | IC50 (Plasmodium falciparum [3]): > 10 µM | hemolysis at 1 h, 12.5 µM [4]: < 10% | IC50 at 48 h [9]: 69.2 µM | IC50 (Plasmodium falciparum [7]): 7.83 µM

O=C(CN1CCN(c2ccccc2O)CC1)Nc1nnc(COc2ccc3ccccc3c2)s1
viability at 48 h, 50 µM [1]: 92.9% | Activity (Vero): Non-Toxic | selectivity ratio [2]: 14.4 | IC50 (Leishmania donovani): 4.34 µM | IC50 (Plasmodium falciparum [3]): > 10 µM | hemolysis at 1 h, 12.5 µM [4]: < 10% | IC50 (Dihydrofolate reductase): 2.5 µM | Ratio IC50 [5]: 400.881 | Activity (Erythrocyte [6]): Toxic | IC50 (Plasmodium falciparum [7]): 3.47 µM

O=C(CN1CCCCC1)Nc1nnc(COc2ccc3ccccc3c2)s1
viability at 48 h, 50 µM [1]: 86.9% | selectivity ratio [2]: 2.33 | IC50 (Leishmania donovani): 6.71 µM | IC50 (Plasmodium falciparum [3]): > 10 µM | hemolysis at 1 h, 12.5 µM [4]: < 10% | Activity (Erythrocyte [6]): Toxic | IC50 (Plasmodium falciparum [7]): 21.5 µM

O=C(CN1CCN(c2cc(N3CCOCC3)ncn2)CC1)Nc1nnc(COc2ccc3ccccc3c2)s1
viability at 48 h, 50 µM [1]: 87.4% | selectivity ratio [2]: 0.82 | IC50 (Leishmania donovani): 6.61 µM | IC50 (Plasmodium falciparum [3]): > 10 µM | hemolysis at 1 h, 12.5 µM [4]: < 10% | IC50 (Plasmodium falciparum [7]): 61.3 µM

COc1ccc(N2CCN(CC(=O)Nc3nnc(COc4ccc5ccccc5c4)s3)CC2)cc1
viability at 48 h, 50 µM [1]: 58% | selectivity ratio [2]: 0.25 | IC50 (Leishmania donovani): 5.53 µM | IC50 (Plasmodium falciparum [3]): > 10 µM | hemolysis at 1 h, 12.5 µM [4]: < 10% | IC50 (Plasmodium falciparum [7]): > 200 µM

CCN(CC)CCCC(C)Nc1ccnc2cc(Cl)ccc12 (stereo unspecified) [CHLOROQUINE]
viability at 48 h, 50 µM [1]: 58.5% | Activity (Erythrocyte [10]): Toxic | IC50 at 48 h [9]: 17.2 µM

CCOC(=O)c1cnc2ccccc2c1N1CCN(CC(=O)Nc2nnc(COc3ccc4ccccc4c3)s2)CC1
viability at 48 h, 50 µM [1]: 59.8% | selectivity ratio [2]: 1.73 | IC50 (Leishmania donovani): 5.32 µM | IC50 (Plasmodium falciparum [3]): > 10 µM | hemolysis at 1 h, 12.5 µM [4]: < 10% | IC50 (Plasmodium falciparum [7]): 28.9 µM
